Assay results: patent US6620831B2, “Indazoles substituted with 1,1-dioxoisothiazolidine useful as inhibitors of cell proliferation” (LG Life Sciences Ltd., priority 2000, dated 2003)

The compounds below were run against T1, CDK2/cyclin A (Homo sapiens, UniProt P24941) (assay: CDK2 inhibitory activity (CDK2/cyclin A, [gamma-32P] ATP, histon H1 or Rb protein substrate)). Conditions: first IC50 column (c1) of Table 1.
T1 construct: made in house; host or cells: insect ('worm') cells co-infected with baculoviruses
Type: biochemical
From the text: CDK2 enzyme was obtained from either extract from the worm cell co-infected with baculovirus which expresses a CDK2 gene and baculovirus which expresses a cyclin A gene, or active enzyme purified therefrom. CDK4 was also obtained from either extract from the worm cell co-infected with baculovirus which expresses a CDK4 gene and baculovirus which expresses a cyclin D1 gene. As substrates, histon H1 or Rb protein was used for CDK2, and Rb protein for CDK4. The radioactive activities in substrates were determined by reacting compounds diluted with each concentration with a proper quantity of CDK2/cyclin A or CDK4/cyclin D1 and substrate protein, and [gamma-32P labeled] ATP, and then separating the substrates.
Inhibitory abilities of inhibitors according to the present invention for each enzyme activity were expressed as IC50 values, which were determined in accordance with the method as described above.

Compound | IC50 [nM]
O=C(Cn1cnc(-c2ccc(Br)cc2)c1)Nc1n[nH]c2ccc(N3CCCS3(=O)=O)cc12 [Compound 61, 2-[4-(4-bromophenyl)-1H-imidazol-1-yl]-N-[5-(1,1-dioxo-1λ^6-isothiazolidin-2-yl)-1H-indazol-3-yl]acetamide] | < 100
O=C(Cn1cnc(-c2ccc3ccccc3c2)c1)Nc1n[nH]c2ccc(N3CCCS3(=O)=O)cc12 [Compound 62, N-[5-(1,1-dioxo-1λ^6-isothiazolidin-2-yl)-1H-indazol-3-yl]-2-[4-(2-naphthyl)-1H-imidazol-1-yl]acetamide] | < 50
O=C(Cn1cnc(-c2ccc(-c3ccccc3)cc2)c1)Nc1n[nH]c2ccc(N3CCCS3(=O)=O)cc12 [Compound 63, 2-(4-[1,1′-biphenyl]-4-yl-1H-imidazol-1-yl)-N-[5-(1,1-dioxo-1λ^6-isothiazolidin-2-yl)-1H-indazol-3-yl]acetamide] | < 500
CCNc1nc(CC(=O)Nc2n[nH]c3ccc(N4CCCS4(=O)=O)cc23)cs1 [Compound 64, N-[5-(1,1-dioxo-1λ^6-isothiazolidin-2-yl)-1H-indazol-3-yl]-2-[2-(ethylamino)-1,3-thiazol-4-yl]acetamide] | < 500
CCN(CC)c1nc(CC(=O)Nc2n[nH]c3ccc(N4CCCS4(=O)=O)cc23)cs1 [Compound 65, 2-[2-(diethylamino)-1,3-thiazol-4-yl]-N-[5-(1,1-dioxo-1λ^6-isothiazolidin-2-yl)-1H-indazol-3-yl]acetamide] | < 500
COCCOCCOCCOc1ccc(CC(=O)Nc2n[nH]c3ccc(N4CCCS4(=O)=O)cc23)cc1 [Compound 66, N-[5-(1,1-dioxo-1λ^6-isothiazolidin-2-yl)-1H-indazol-3-yl]-2-(4-2-[2-(2-methoxyethoxy)ethoxy]ethoxyphenyl)acetamide] | < 100
CCOc1ccc(CC(=O)Nc2n[nH]c3ccc(N4CCCS4(=O)=O)cc23)cc1[N+](=O)[O-] [Compound 67, N-[5-(1,1-dioxo-1λ^6-isothiazolidin-2-yl)-1H-indazol-3-yl]-2-(4-ethoxy-3-nitrophenyl)acetamide] | < 50
COc1cc(CC(=O)Nc2n[nH]c3ccc(N4CCCS4(=O)=O)cc23)cc(OC)c1 [Compound 71, 2-(3,5-dimethoxyphenyl)-N-[5-(1,1-dioxo-1λ^6-isothiazolidin-2-yl)-1H-indazol-3-yl]acetamide] | < 50
NCCOc1ccc(CC(=O)Nc2n[nH]c3ccc(N4CCCS4(=O)=O)cc23)cc1 [Compound 75, 2-[4-(2-aminoethoxy)phenyl]-N-[5-(1,1-dioxo-1λ^6-isothiazolidin-2-yl)-1H-indazol-3-yl]acetamide] | < 100
CC(=O)Nc1nc(CC(=O)Nc2n[nH]c3ccc(N4CCCS4(=O)=O)cc23)cs1 [Compound 76] | < 10000
O=C(Cc1csc(NCc2ccc(OCc3ccccc3)cc2)n1)Nc1n[nH]c2ccc(N3CCCS3(=O)=O)cc12 [Compound 77, 2-(2-[4-(benzyloxy)benzyl]amino-1,3-thiazol-4-yl)-N-[5-(1,1-dioxo-1λ^6-isothiazolidin-2-yl)-1H-indazol-3-yl]acetamide] | < 10000
CCOc1ccc(CC(=O)Nc2n[nH]c3ccc(N4CCCS4(=O)=O)cc23)cc1S(=O)(=O)N1CCOCC1 [Compound 79, N-[5-(1,1-dioxo-1λ^6-isothiazolidin-2-yl)-1H-indazol-3-yl]-2-[4-ethoxy-3-(4-morpholinylsulfonyl)phenyl]acetamide] | < 1000
CCOc1ccc(CC(=O)Nc2n[nH]c3ccc(N4CCCS4(=O)=O)cc23)cc1S(N)(=O)=O [Compound 80, 2-[3-(aminosulfonyl)-4-ethoxyphenyl]-N-[5-(1,1-dioxo-1λ^6-isothiazolidin-2-yl)-1H-indazol-3-yl]acetamide] | < 1000
CCOc1ccc(CC(=O)Nc2n[nH]c3ccc(N4CCCS4(=O)=O)cc23)cc1S(=O)(=O)N1CCN(C)CC1 [Compound 81, N-[5-(1,1-dioxo-1λ^6-isothiazolidin-2-yl)-1H-indazol-3-yl]-2-4-ethoxy-3-[(4-methyl-1-piperazinyl)sulfonyl]phenylacetamide] | < 1000
NCCOc1ccc(CC(=O)Nc2n[nH]c3ccc(N4CCCS4(=O)=O)cc23)cc1 [Compound 82, 2-[4-(2-aminoethoxy)phenyl]-N-[5-(1,1-dioxo-1λ^6-isothiazolidin-2-yl)-1H-indazol-3-yl]acetamide] | < 1000

More lines, now with the values ahead:

IC50 [nM] | Compound
< 100 | Cc1ccccc1CC(=O)Nc1n[nH]c2ccc(N3CCCS3(=O)=O)cc12 [Compound 68, N-[5-(1,1-dioxo-1λ^6-isothiazolidin-2-yl)-1H-indazol-3-yl]-2-(2-methylphenyl)acetamide]
< 500 | CCNc1cccc(CC(=O)Nc2n[nH]c3ccc(N4CCCS4(=O)=O)cc23)c1 [Compound 69, N-[5-(1,1-dioxo-1λ^6-isothiazolidin-2-yl)-1H-indazol-3-yl]-2-[3-(ethylamino)phenyl]acetamide]
< 500 | CCN(CC)c1cccc(CC(=O)Nc2n[nH]c3ccc(N4CCCS4(=O)=O)cc23)c1 [Compound 70, 2-[3-(diethylamino)phenyl]-N-[5-(1,1-dioxo-1λ^6-isothiazolidin-2-yl)-1H-indazol-3-yl]acetamide]
< 50 | CCNc1ccc(CC(=O)Nc2n[nH]c3ccc(N4CCCS4(=O)=O)cc23)cc1 [Compound 72, N-[5-(1,1-dioxo-1λ^6-isothiazolidin-2-yl)-1H-indazol-3-yl]-2-[4-(ethylamino)phenyl]acetamide]
< 50 | CCN(CC)c1ccc(CC(=O)Nc2n[nH]c3ccc(N4CCCS4(=O)=O)cc23)cc1 [Compound 73, 2-[4-(diethylamino)phenyl]-N-[5-(1,1-dioxo-1λ^6-isothiazolidin-2-yl)-1H-indazol-3-yl]acetamide]
< 100 | CCOc1ccc(CC(=O)Nc2n[nH]c3ccc(N4CCCS4(=O)=O)cc23)cc1Cl [Compound 74, 2-(3-chloro-4-ethoxyphenyl)-N-[5-(1,1-dioxo-1λ^6-isothiazolidin-2-yl)-1H-indazol-3-yl]acetamide]
< 50 | CCOc1cccc(CC(=O)Nc2n[nH]c3ccc(N4CCCS4(=O)=O)cc23)c1 [Compound 78, N-[5-(1,1-dioxo-1λ^6-isothiazolidin-2-yl)-1H-indazol-3-yl]-2-(3-ethoxyphenyl)acetamide]
